Experimental data: ChEMBL document CHEMBL4673364, “Synthesis and cytotoxic activity of new 7-acetoxy-12-amino-14-deoxy andrographolide analogues” (Bioorg Med Chem Lett, 2021)
pIC50: −log10 of the molar value.

System: not listed separately
Test: Cytotoxicity against rat ASK cells assessed as reduction in cell viability by SRB assay
Format: functional, cell-based

SMILES	pIC50
C=C1[C@@H](OC(C)=O)C[C@@H]2[C@](C)(COC=O)[C@H](OC(C)=O)CC[C@@]2(C)[C@@H]1C[C@@H](Nc1cccc2ccccc12)C1=CCOC1=O	< 4.30
C=C1[C@@H](OC(C)=O)C[C@@H]2[C@](C)(COC=O)[C@H](OC(C)=O)CC[C@@]2(C)[C@@H]1C[C@@H](Nc1ccc(OC)c(OC)c1)C1=CCOC1=O	< 4.30
C=C1[C@@H](OC(C)=O)C[C@@H]2[C@](C)(COC=O)[C@H](OC(C)=O)CC[C@@]2(C)[C@@H]1C[C@@H](Nc1ccccc1C(=O)O)C1=CCOC1=O	< 4.30
C=C1[C@@H](OC(C)=O)C[C@@H]2[C@](C)(CO[Si](C)(C)C(C)(C)C)[C@H](OC(C)=O)CC[C@@]2(C)[C@@H]1C[C@H](C1=CCOC1=O)N1CCOCC1	4.58
C=C1CC[C@@H]2[C@](C)(CO)[C@H](O)CC[C@@]2(C)[C@@H]1C/C=C1/C(=O)OC[C@H]1O [ANDROGRAPHOLIDE]	4.34
C=C1[C@@H](OC(C)=O)C[C@@H]2[C@](C)(COC=O)[C@H](OC(C)=O)CC[C@@]2(C)[C@@H]1C[C@@H](Nc1ccccc1)C1=CCOC1=O	4.39

System: HT-29
Test: Cytotoxicity against human HT-29 cells assessed as reduction in cell viability by SRB assay
Format: functional, cell-based

SMILES	pIC50
C=C1[C@@H](OC(C)=O)C[C@@H]2[C@](C)(COC=O)[C@H](OC(C)=O)CC[C@@]2(C)[C@@H]1C[C@@H](Nc1cccc2ccccc12)C1=CCOC1=O	5.06
C=C1[C@@H](OC(C)=O)C[C@@H]2[C@](C)(COC=O)[C@H](OC(C)=O)CC[C@@]2(C)[C@@H]1C[C@@H](Nc1ccc(OC)c(OC)c1)C1=CCOC1=O	4.37
C=C1[C@@H](OC(C)=O)C[C@@H]2[C@](C)(COC=O)[C@H](OC(C)=O)CC[C@@]2(C)[C@@H]1C[C@@H](Nc1ccccc1C(=O)O)C1=CCOC1=O	4.54
C=C1[C@@H](OC(C)=O)C[C@@H]2[C@](C)(CO[Si](C)(C)C(C)(C)C)[C@H](OC(C)=O)CC[C@@]2(C)[C@@H]1C[C@H](C1=CCOC1=O)N1CCOCC1	4.43
C=C1CC[C@@H]2[C@](C)(CO)[C@H](O)CC[C@@]2(C)[C@@H]1C/C=C1/C(=O)OC[C@H]1O [ANDROGRAPHOLIDE]	4.97
C=C1[C@@H](OC(C)=O)C[C@@H]2[C@](C)(COC=O)[C@H](OC(C)=O)CC[C@@]2(C)[C@@H]1C[C@@H](Nc1ccccc1)C1=CCOC1=O	4.54

System: not listed separately
Test: Cytotoxicity against human K213 cells assessed as reduction in cell viability by SRB assay
Format: functional, cell-based

SMILES	pIC50
C=C1[C@@H](OC(C)=O)C[C@@H]2[C@](C)(COC=O)[C@H](OC(C)=O)CC[C@@]2(C)[C@@H]1C[C@@H](Nc1cccc2ccccc12)C1=CCOC1=O	4.50
C=C1[C@@H](OC(C)=O)C[C@@H]2[C@](C)(COC=O)[C@H](OC(C)=O)CC[C@@]2(C)[C@@H]1C[C@@H](Nc1ccc(OC)c(OC)c1)C1=CCOC1=O	< 4.30
C=C1[C@@H](OC(C)=O)C[C@@H]2[C@](C)(COC=O)[C@H](OC(C)=O)CC[C@@]2(C)[C@@H]1C[C@@H](Nc1ccccc1C(=O)O)C1=CCOC1=O	4.37
C=C1CC[C@@H]2[C@](C)(CO)[C@H](O)CC[C@@]2(C)[C@@H]1C/C=C1/C(=O)OC[C@H]1O [ANDROGRAPHOLIDE]	4.47
C=C1[C@@H](OC(C)=O)C[C@@H]2[C@](C)(COC=O)[C@H](OC(C)=O)CC[C@@]2(C)[C@@H]1C[C@@H](Nc1ccccc1)C1=CCOC1=O	4.40

System: KB
Test: Cytotoxicity against human KB cells assessed as reduction in cell viability by SRB assay
Format: functional, cell-based

SMILES	pIC50
C=C1[C@@H](OC(C)=O)C[C@@H]2[C@](C)(COC=O)[C@H](OC(C)=O)CC[C@@]2(C)[C@@H]1C[C@@H](Nc1cccc2ccccc12)C1=CCOC1=O	4.49
C=C1[C@@H](OC(C)=O)C[C@@H]2[C@](C)(COC=O)[C@H](OC(C)=O)CC[C@@]2(C)[C@@H]1C[C@@H](Nc1ccc(OC)c(OC)c1)C1=CCOC1=O	< 4.30
C=C1[C@@H](OC(C)=O)C[C@@H]2[C@](C)(COC=O)[C@H](OC(C)=O)CC[C@@]2(C)[C@@H]1C[C@@H](Nc1ccccc1C(=O)O)C1=CCOC1=O	4.37
C=C1[C@@H](OC(C)=O)C[C@@H]2[C@](C)(CO[Si](C)(C)C(C)(C)C)[C@H](OC(C)=O)CC[C@@]2(C)[C@@H]1C[C@H](C1=CCOC1=O)N1CCOCC1	4.45
C=C1CC[C@@H]2[C@](C)(CO)[C@H](O)CC[C@@]2(C)[C@@H]1C/C=C1/C(=O)OC[C@H]1O [ANDROGRAPHOLIDE]	4.38
C=C1[C@@H](OC(C)=O)C[C@@H]2[C@](C)(COC=O)[C@H](OC(C)=O)CC[C@@]2(C)[C@@H]1C[C@@H](Nc1ccccc1)C1=CCOC1=O	4.49

System: MCF7
Test: Cytotoxicity against human MCF7 cells assessed as reduction in cell viability by SRB assay
Format: functional, cell-based

SMILES	pIC50
C=C1[C@@H](OC(C)=O)C[C@@H]2[C@](C)(COC=O)[C@H](OC(C)=O)CC[C@@]2(C)[C@@H]1C[C@@H](Nc1cccc2ccccc12)C1=CCOC1=O	5.01
C=C1[C@@H](OC(C)=O)C[C@@H]2[C@](C)(COC=O)[C@H](OC(C)=O)CC[C@@]2(C)[C@@H]1C[C@@H](Nc1ccc(OC)c(OC)c1)C1=CCOC1=O	< 4.30
C=C1[C@@H](OC(C)=O)C[C@@H]2[C@](C)(COC=O)[C@H](OC(C)=O)CC[C@@]2(C)[C@@H]1C[C@@H](Nc1ccccc1C(=O)O)C1=CCOC1=O	4.51
C=C1[C@@H](OC(C)=O)C[C@@H]2[C@](C)(CO[Si](C)(C)C(C)(C)C)[C@H](OC(C)=O)CC[C@@]2(C)[C@@H]1C[C@H](C1=CCOC1=O)N1CCOCC1	4.50
C=C1CC[C@@H]2[C@](C)(CO)[C@H](O)CC[C@@]2(C)[C@@H]1C/C=C1/C(=O)OC[C@H]1O [ANDROGRAPHOLIDE]	4.54
C=C1[C@@H](OC(C)=O)C[C@@H]2[C@](C)(COC=O)[C@H](OC(C)=O)CC[C@@]2(C)[C@@H]1C[C@@H](Nc1ccccc1)C1=CCOC1=O	4.58

System: A549
Test: Cytotoxicity against human A549 cells assessed as reduction in cell viability by SRB assay
Format: functional, cell-based

SMILES	pIC50
C=C1[C@@H](OC(C)=O)C[C@@H]2[C@](C)(COC=O)[C@H](OC(C)=O)CC[C@@]2(C)[C@@H]1C[C@@H](Nc1cccc2ccccc12)C1=CCOC1=O	4.45
C=C1[C@@H](OC(C)=O)C[C@@H]2[C@](C)(COC=O)[C@H](OC(C)=O)CC[C@@]2(C)[C@@H]1C[C@@H](Nc1ccc(OC)c(OC)c1)C1=CCOC1=O	< 4.30
C=C1[C@@H](OC(C)=O)C[C@@H]2[C@](C)(COC=O)[C@H](OC(C)=O)CC[C@@]2(C)[C@@H]1C[C@@H](Nc1ccccc1C(=O)O)C1=CCOC1=O	4.34
C=C1[C@@H](OC(C)=O)C[C@@H]2[C@](C)(CO[Si](C)(C)C(C)(C)C)[C@H](OC(C)=O)CC[C@@]2(C)[C@@H]1C[C@H](C1=CCOC1=O)N1CCOCC1	4.60
C=C1CC[C@@H]2[C@](C)(CO)[C@H](O)CC[C@@]2(C)[C@@H]1C/C=C1/C(=O)OC[C@H]1O [ANDROGRAPHOLIDE]	4.92
C=C1[C@@H](OC(C)=O)C[C@@H]2[C@](C)(COC=O)[C@H](OC(C)=O)CC[C@@]2(C)[C@@H]1C[C@@H](Nc1ccccc1)C1=CCOC1=O	4.59

System: not listed separately
Test: Cytotoxicity against human K055 cells assessed as reduction in cell viability by SRB assay
Format: functional, cell-based

SMILES	pIC50
C=C1[C@@H](OC(C)=O)C[C@@H]2[C@](C)(COC=O)[C@H](OC(C)=O)CC[C@@]2(C)[C@@H]1C[C@@H](Nc1cccc2ccccc12)C1=CCOC1=O	4.54
C=C1[C@@H](OC(C)=O)C[C@@H]2[C@](C)(COC=O)[C@H](OC(C)=O)CC[C@@]2(C)[C@@H]1C[C@@H](Nc1ccc(OC)c(OC)c1)C1=CCOC1=O	4.32
C=C1[C@@H](OC(C)=O)C[C@@H]2[C@](C)(COC=O)[C@H](OC(C)=O)CC[C@@]2(C)[C@@H]1C[C@@H](Nc1ccccc1C(=O)O)C1=CCOC1=O	4.39
C=C1[C@@H](OC(C)=O)C[C@@H]2[C@](C)(CO[Si](C)(C)C(C)(C)C)[C@H](OC(C)=O)CC[C@@]2(C)[C@@H]1C[C@H](C1=CCOC1=O)N1CCOCC1	4.55
C=C1CC[C@@H]2[C@](C)(CO)[C@H](O)CC[C@@]2(C)[C@@H]1C/C=C1/C(=O)OC[C@H]1O [ANDROGRAPHOLIDE]	4.52
C=C1[C@@H](OC(C)=O)C[C@@H]2[C@](C)(COC=O)[C@H](OC(C)=O)CC[C@@]2(C)[C@@H]1C[C@@H](Nc1ccccc1)C1=CCOC1=O	4.48

System: not listed separately
Test: Cytotoxicity against human P388 cells assessed as reduction in cell viability by SRB assay
Format: functional, cell-based

SMILES	pIC50
C=C1[C@@H](OC(C)=O)C[C@@H]2[C@](C)(COC=O)[C@H](OC(C)=O)CC[C@@]2(C)[C@@H]1C[C@@H](Nc1cccc2ccccc12)C1=CCOC1=O	5.19
C=C1[C@@H](OC(C)=O)C[C@@H]2[C@](C)(COC=O)[C@H](OC(C)=O)CC[C@@]2(C)[C@@H]1C[C@@H](Nc1ccc(OC)c(OC)c1)C1=CCOC1=O	4.59
C=C1[C@@H](OC(C)=O)C[C@@H]2[C@](C)(COC=O)[C@H](OC(C)=O)CC[C@@]2(C)[C@@H]1C[C@@H](Nc1ccccc1C(=O)O)C1=CCOC1=O	5.04
C=C1[C@@H](OC(C)=O)C[C@@H]2[C@](C)(CO[Si](C)(C)C(C)(C)C)[C@H](OC(C)=O)CC[C@@]2(C)[C@@H]1C[C@H](C1=CCOC1=O)N1CCOCC1	4.69
C=C1CC[C@@H]2[C@](C)(CO)[C@H](O)CC[C@@]2(C)[C@@H]1C/C=C1/C(=O)OC[C@H]1O [ANDROGRAPHOLIDE]	5.16
C=C1[C@@H](OC(C)=O)C[C@@H]2[C@](C)(COC=O)[C@H](OC(C)=O)CC[C@@]2(C)[C@@H]1C[C@@H](Nc1ccccc1)C1=CCOC1=O	5.11
